Reference: PubChem BioAssay AID1645864 (Buhrlage Lab, Dana-Farber Cancer Institute and Novartis …, 2021)
Activity calls are given as the source filed them.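 Rule for the calls: active = maximal inhibition of USP17 at or above 30% in the confirmation dose-response, a value not among the printed readouts; inactive = the rest.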

Target: Ubiquitin carboxyl-terminal hydrolase 17-like protein 5 (Homo sapiens) (UniProt A8MUK1)
Test: ubiquitin-specific protease 17 DUB inhibitors, concentration-effect assay, cell-free, verification of initial screening actives (AID 1645864)
Conditions: purified USP17, ubiquitin-rhodamine cleavage fluorescence, 3 h

Sequence of Ubiquitin carboxyl-terminal hydrolase 17-like protein 5 (Homo sapiens) (A8MUK1 whole entry, looked up): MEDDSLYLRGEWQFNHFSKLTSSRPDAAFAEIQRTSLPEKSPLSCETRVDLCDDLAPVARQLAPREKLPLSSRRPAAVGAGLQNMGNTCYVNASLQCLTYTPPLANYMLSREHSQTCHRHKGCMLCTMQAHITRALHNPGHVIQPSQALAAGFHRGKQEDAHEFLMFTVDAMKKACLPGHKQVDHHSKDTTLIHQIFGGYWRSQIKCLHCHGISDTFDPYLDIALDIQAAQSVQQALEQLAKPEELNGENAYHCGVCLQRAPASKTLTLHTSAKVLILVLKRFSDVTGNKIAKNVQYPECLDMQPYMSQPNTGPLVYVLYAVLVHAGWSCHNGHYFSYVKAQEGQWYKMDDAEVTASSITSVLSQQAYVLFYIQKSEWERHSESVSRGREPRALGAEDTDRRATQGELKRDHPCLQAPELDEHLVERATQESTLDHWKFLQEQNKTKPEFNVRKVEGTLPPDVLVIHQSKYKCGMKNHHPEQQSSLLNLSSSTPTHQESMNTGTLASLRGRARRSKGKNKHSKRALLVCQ

| Structure (SMILES) | IC50 |
| --- | --- |
| CCOc1ccc(-c2noc(-c3nn(-c4cccc(OC)c4)ccc3=O)n2)cc1 | 10 µM |
| CCN(CC)C(=O)c1sc(NC(=O)/C=C/c2c(F)cccc2Cl)c(C#N)c1C | 2.29 µM |
| CC(C)(C)C(=O)C1C2C(=O)N(Cc3ccccc3)C(=O)C2C2c3ccccc3C=CN12 (stereo not given) | > 50 µM (inactive) |
| COc1ccc(NC(=O)c2[nH]nc3c2COc2ccccc2-3)c(OC)c1 | 5.5 µM |
| O=C(CSc1ncnc2c1oc1ccccc12)Nc1ccc2c(c1)OCCO2 | 29 µM |
| Cc1cccc(NC(=O)CSc2nnc(-c3n[nH]c4c3CCC4)n2N)c1 | 35.1 µM |
| CNS(=O)(=O)c1ccc(CNC(=O)c2cc(-c3ccc(C)cc3)no2)cc1 | 20.2 µM |
| COc1ccc(Cn2c(=O)[nH]c3cc(C(=O)NCCCN4CCN(c5cccc(Cl)c5)CC4)ccc3c2=O)cc1 | 3.03 µM |
| CCN(CC)C(=O)CN1CCCC(c2ncncc2-c2cc(C)no2)C1 (stereo not given) | > 50 µM (inactive) |
| Cc1cc(Nc2ccc(C(=O)NCc3ccco3)cc2)n2nc(-c3cccnc3)nc2n1 | 34.1 µM |
| COc1ccc(CCNC(=O)CCn2c(=O)c3ccccc3n(Cc3ccc(C)cc3)c2=O)cc1OC | 28.6 µM |
| O=C(c1ccnn1-c1ccc2ccc(-c3ccncc3)cn12)N1CCCC1 | > 50 µM (inactive) |
| O=C(c1cc(Cl)ccc1Cl)N1CCN(c2ccc3nnc(-c4ccco4)n3n2)CC1 | > 50 µM (inactive) |
| O=C(c1cc(-c2ccc(Cl)cc2)n[nH]1)N1CCN(C(=O)c2ccco2)CC1 | 32.2 µM |
| O=C(Nc1ccc(Br)cn1)c1nc2ccccc2nc1N1CCCCC1 | > 50 µM (inactive) |
| COc1cc(NC(=O)c2cc(-c3ccncc3)n(-c3ccc(F)cc3)n2)cc(OC)c1 | > 50 µM (inactive) |
| CCn1c(CN2CCCC(c3nc(-c4cccnc4)n[nH]3)C2)nc2ccccc21 (stereo not given) | > 50 µM (inactive) |
| CSc1ccccc1NC(=O)c1ccc(-n2cccn2)nn1 | 4.43 µM |
| CC(C)(C)N=C1Nc2ncccc2NC12CCCN(C(=O)c1ccccc1)C2 (stereo not given) | > 50 µM (inactive) |
| Cc1cnc2nc3c(cc2c1)CN(S(=O)(=O)c1cc(F)ccc1C)CC3 | > 50 µM (inactive) |
| CCc1nc(SCC(=O)Nc2ccccc2Cl)c2oc3ccccc3c2n1 | 0.0527 µM |
| C=Cc1ccc(Cn2cc(S(=O)(=O)N3CCOCC3)ccc2=O)cc1 | 40.6 µM |
| CNC(=O)c1cc2nc(N(C)C)n(-c3ccccc3)c2s1 | > 50 µM (inactive) |
| CC(C)(C)c1ccc(Cn2nnc3c(=O)[nH]c(C4CCN(S(=O)(=O)c5ccc(S(=O)(=O)NC6CC6)cc5)CC4)nc32)cc1 | 39.3 µM |
| Cc1cc(N2CCN(c3ncccn3)CC2)nc2ccc(NC(=O)c3ccncc3)cc12 | 2.99 µM |

| Structure (SMILES) | IC50 |
| --- | --- |
| Cc1cccc(NC(=O)CSc2ncnc3c2sc2nc(CC(C)C)c4c(c23)CCC4)c1 | 44.1 µM |
| O=C(COc1ccc(Cl)cc1)Nc1noc(-c2ccccc2)n1 | 22.6 µM |
| CC1OC2CC(O)C1(O)C1=C2C(O)=C(C(N)=O)C(=N)C1=O (stereo not given) | 2.06 µM |
| COc1cccc2sc(N3CCN(c4nc5ccccc5s4)CC3)nc12 | 38 µM |
| CCOC(=O)c1ccc(NC(=O)c2cnc(N3CCOCC3)nc2)cc1 | > 5 µM (inactive) |
| CSc1ncccc1C(=O)OCc1ccc(Br)cc1 | > 50 µM (inactive) |
| CN1CC2CN(C(=O)c3ccc(F)cc3)CCN2Cc2ccccc21 (stereo not given) | > 50 µM (inactive) |
| O=C(CNC(=O)OCc1ccccc1)Nc1ccc(Br)cc1C(=O)c1ccccc1Cl | 9.66 µM |
| CCN1C[C@@H]2C[C@]2(c2ccccc2OC)C(=O)c2ncccc21 | > 50 µM (inactive) |
| COc1ccc(-c2cc3nc(C)cc(Nc4ccc(F)cc4)n3n2)cc1OC | > 50 µM (inactive) |
| O=S1(=O)CCN(Cc2cccnc2)c2c(F)nc(N3CCOCC3)c(F)c21 | > 50 µM (inactive) |
| Cc1nn(CC(=O)NCc2ccccc2F)c2ccccc12 | 47 µM |
| COC(=O)C1C(c2ccc(Cl)cc2Cl)C2(C(=O)c3ccccc3C2=O)C2C=Cc3ccccc3N12 (stereo not given) | > 50 µM (inactive) |
| Cc1ccc(-n2nnc(C(=O)NC3CCCCC3)c2N)cc1 | 22.1 µM |
| Cc1ccc2c(=O)c(C(=O)Nc3ccccc3)cn(CC(=O)NC3CCCCC3)c2n1 | < 0.05 µM |
| O=C(Nc1cccc(F)c1)c1ncoc1-c1ccco1 | > 50 µM (inactive) |
| CCCn1c(=O)c(-c2ccc(C(=O)NCc3ccc(OC)cc3)cc2)nc2cccnc21 | 1.78 µM |
| O=C(NC1CCCCC1)c1cc2c(cn1)[nH]c1ccccc12 | > 50 µM (inactive) |
| Cc1nc(N2CCCC2)ncc1C(=O)Nc1ccc(F)c(F)c1 | 32.3 µM |
| CC1CCN(c2nc(F)c3c(c2F)S(=O)(=O)CCN3Cc2cccnc2)CC1 | > 50 µM (inactive) |
| CCc1ccc(C2c3c(oc4ccccc4c3=O)C(=O)N2c2nncs2)cc1 (stereo not given) | > 50 µM (inactive) |
| CC1=C(c2ccc(F)cc2)S(=O)(=O)NC1=NCC(=O)Nc1cccc(F)c1 | 34.2 µM |
| CC1(C)Cc2c(c(-c3ccco3)nc3sc4c(SCCCc5ccccc5)ncnc4c23)CO1 | 34.4 µM |
| CNC(=O)c1c2n(c3ncccc13)CCN(S(=O)(=O)c1ccc(-c3ccccc3)cc1)C2 | 15 µM |
| CC1=C(c2ccc(F)cc2)S(=O)(=O)NC1=NCC(=O)Nc1ccc(F)cc1F | 25.9 µM |

| Structure (SMILES) | IC50 |
| --- | --- |
| CCOc1ccc(-n2c(C)cc(/C=C(\C#N)c3nc4ccccc4[nH]3)c2C)cc1 | > 50 µM (inactive) |
| O=C(Nc1ccc2sccc2c1)c1ccc(F)cc1 | 40.6 µM |
| COc1ccccc1NC(=O)CNC(=O)c1nn(-c2ccc(OC)c(OC)c2)c(=O)c2ccccc12 | 29.4 µM |
| CSc1cccc(NC(=O)COc2cccc3ccccc23)c1 | 2.04 µM |
| CN1C(=O)COc2ccc(NC(=O)c3cc(-c4ccccc4)on3)cc21 | 9.45 µM |
| Cc1ccc(NC(=O)Cc2nnc3c(-c4nc(C5CC5)no4)cccn23)cc1 | 4.85 µM |
| Cc1ccnc(NC(=O)c2ccn(COc3ccc(Cl)cc3)n2)c1 | 24.2 µM |
| CS(=O)(=O)NC1CCCN(C(=O)Nc2cccc3ccccc23)C1 (stereo not given) | 17.3 µM |
| Cn1cc(-c2noc(Cc3cccc(C(F)(F)F)c3)n2)ccc1=O | > 50 µM (inactive) |
| O=C(Nc1ccc2ccccc2n1)c1ccc(Cl)cc1 | 2.19 µM |
| Cc1ccc(Cn2nnc(C(=O)NCc3ccco3)c2-n2cccc2)cc1 | 42.4 µM |
| N#Cc1ccc(NC(=O)Nc2cccn(Cc3ccccc3F)c2=O)cc1 | 6.33 µM |
| Cc1nc(SCC(=O)Nc2cc(Cl)ccc2C)c2oc3ccccc3c2n1 | 1.67 µM |
| O=c1oc2ccccc2c2nn(-c3ccccn3)cc12 | 47.9 µM |
| Cc1cc(C)cc(N(CCC(=O)Nc2ccc(N3CCOCC3)cc2)S(=O)(=O)c2ccc(Cl)cc2)c1 | 18.2 µM |
| O=C(CSc1nncc2ccccc12)Nc1ccc2c(c1)OCO2 | > 50 µM (inactive) |
| Cc1c(C)n(-c2ccc(Br)cn2)c2ncnc(NCCCO)c12 | 49.9 µM |
| O=C(/C=C/C=C/C=C/C1CCCCC1)NC1=C[C@@](O)(/C=C/C=C/C=C/C(=O)NC2=C(O)CCC2=O)[C@@H]2O[C@@H]2C1=O | 3.32 µM |
| CC(C)CCN1C(=O)C2C(C(=O)Nc3ccc(Oc4ccccc4)cc3)C3C=CC2(O3)C1C(=O)NC1CCCCC1 (stereo not given) | 34 µM |
| CCCc1nc2sc3c(NCCCN4CCOCC4)ncnc3c2c2c1CCC2 | > 50 µM (inactive) |
| O=c1[nH]cccc1NS(=O)(=O)c1ccc(F)cc1 | > 50 µM (inactive) |
| Cc1cc2c(cc1C)NC(CC(=O)Nc1ccc(O)cc1)C(=O)N2 (stereo not given) | 24.1 µM |
| Cc1noc(-c2cccc(=O)n2CC(=O)Nc2ccc(C)c(C)c2)n1 | 20.5 µM |
| O=C(CCc1ccc(S(=O)(=O)N2CCOCC2)cc1)Nc1ccc2c(c1)OCCO2 | > 50 µM (inactive) |
| Cc1cccc(C(=O)N2CCN3Cc4ccccc4N(C)CC3C2)c1 (stereo not given) | > 50 µM (inactive) |

| Structure (SMILES) | IC50 |
| --- | --- |
| COc1cccc2c1NC(=O)C21CCN(C(=O)Nc2cccc3ccccc23)CC1 | > 50 µM (inactive) |
| COCCn1ccc2nc(C)c(C(=O)Nc3ccc4c(c3)OCCO4)cc2c1=O | 37 µM |
| O=C1COc2ccc(NC(=O)c3cnn(Cc4ccccc4)c3)cc2N1 | 39.4 µM |
| CCOc1ccc(NC(=O)Cn2c(=O)n(CCC(=O)NCc3ccco3)c(=O)c3ccccc32)cc1 | 5.43 µM |
| O=[N+]([O-])c1ccc(NCc2ccc(-c3cccs3)s2)nc1 | 39.1 µM |
| Cc1nc(-c2ccccn2)sc1C(=O)Nc1ccc(C#N)cc1 | > 50 µM (inactive) |
| COc1ccc(-c2cc3c(=O)n(CC(=O)NCCCN4CCCC4)ncn3n2)cc1 | 29.2 µM |
| CC(=O)Nc1cc(-c2cccc(O)c2)cn2c(-c3cnn(C)c3)cnc12 | 3.57 µM |
| CO[C@H]1/C=C/OC2(C)Oc3c(C)c(O)c4c(c3C2=O)C2(C=C(NC(=O)/C(C)=C\C=C\[C@H](C)[C@H](O)[C@@H](C)[C@@H](O)[C@@H](C)[C@H](OC(C)=O)C1C)C4=O)OCC(=O)O2 (stereo not given in full) | 42.6 µM |
| Cc1cccc(NC(=O)Nc2ccc(C)n(CC(=O)Nc3ccccc3)c2=O)c1 | 22.6 µM |
| C/C=C(\Cl)C1=CC(=O)[C@]23C[C@H]2[C@@]2(C)CO[C@@]1(O)[C@@]3(O)O2 | 28.2 µM |
| COc1ccc(COC(=O)C2=C(C)NC(=O)CC2c2cccc([N+](=O)[O-])c2)cc1 (stereo not given) | > 50 µM (inactive) |
| O=c1c2cnc3nc(-c4cccnc4)nn3c2ccn1CCc1ccccc1 | > 50 µM (inactive) |
| Cc1ccc(NC(=O)c2ccc3c(c2)N(S(C)(=O)=O)CC3)cc1 | 38.3 µM |
| CCN(CCCNC(=O)c1ccc(Cn2c(=O)[nH]c3ccccc3c2=O)cc1)c1ccccc1 | 16 µM |
| CC(=O)Nc1ccc(-n2cnc(C(=O)NC(C)c3ccccc3)c2)nc1 (stereo not given) | 29.2 µM |
| Cc1ccc(Nc2nc(C(=O)NCc3ccc4c(c3)OCO4)cc3occc23)cc1Cl | 28.1 µM |
| Cc1noc(C)c1CN1CC[C@H]2O[C@H](C(=O)NCc3ccco3)CC[C@H]21 | > 50 µM (inactive) |
| CCCC(=O)Nc1ccc(SCc2nnc(-c3ccccc3)o2)cc1 | > 50 µM (inactive) |
| Cc1ccccc1C(=O)OCCN1C(=O)c2cccc3c(N4CCCCC4)ccc(c23)C1=O | > 50 µM (inactive) |
| Cc1cc(-c2nnc(SCC(=O)Nc3ccc(Br)c(C)c3)n2N)n[nH]1 | 18.7 µM |
| O=c1c(OC2O[C@H](CO)[C@H](O)[C@H](O)[C@H]2O)c(-c2ccc(O)cc2)oc2cc(O)cc(O)c12 (stereo not given in full) | 46.8 µM |
| O=C(Nc1ccncc1)c1ncoc1-c1cccc(Cl)c1 | > 50 µM (inactive) |
| COc1cccc(-c2nc3cnccn3c2NCc2ccc3c(c2)OCO3)c1 | > 50 µM (inactive) |
| COc1ccc(-c2nc(Cn3nnc(C(=O)Nc4ccc(C)c(C)c4)c3N)c(C)o2)cc1 | 2.24 µM |
